For data set [1] the following is noted: measurements made in tissue phantoms; cited from earlier work.
Data set [2] in a line: Serial arterial blood sampling and ^17O NMR spectroscopy of serum during and after 1 minute of ^17O2 delivery. The data set is classed as in vivo, pig. As for the experimental part: During imaging, arterial blood sampling was performed on several occasions. An optimized protocol was developed and repeated. An arterial catheter was placed under ultrasound guidance into the femoral artery in the large animal fluoroscopy suite. Approximately 2 cc of blood was collected over 3-5 seconds into each Vacutainer Serum Separator Tube (Becton-Dickinson, #367983) at a rate of one sample each 10 seconds for the first 12 samples and then 60 seconds each for six more samples. Four control samples were taken before the experiment began. The tubes used are designed to reseal immediately after needle puncture. Their ability to remain sealed was tested by taking several tubes at random, creating a strong negative pressure inside the tube with a vacuum pump attached to a needle, and then repeated puncture with larger diameter needles than used for blood sampling. The pressure inside the tubes was checked after over a dozen punctures and had changed less than 10%.
A concern is that water ^17O will exchange with ambient CO2 through bicarbonate ion, a very fast reaction when catalyzed by carbonic anhydrase as in whole blood (Mills G A, Urey H C. The Kinetics of Isotopic Exchange between Carbon Dioxide, Bicarbonate Ion, Carbonate Ion and Water. J Am Chem Soc 1940; 62 (5):1019-1026). To minimize this effect, serum was separated by centrifugation soon after the experiment. Tubes were then frozen at −20 C and kept sealed until the time of analysis. Centrifugation places a gel between the serum and red blood cells in these tubes to fully separate the two. This procedure serves to protect the samples in two ways. […]
An 11.7T Bruker DMX400 Avance Spectrometer equipped with a 1H/X nucleus decoupler probe tuned to ^17O was used to measure 1 mL of each sample loaded into 5 mm ID NMR tubes just before analysis. Spectra were recorded without lock at room temp. […]
Blood sampling was performed during scanning on two separate occasions. […] Serum concentration of H2^17O was calculated by integrating the H2^17O peak obtained by ^17O spectroscopy of the blood samples taken at the given time points. […]

The nature of data set [3]: T1ρ relaxivity in H2^17O doped phosphate buffered saline phantoms. The conditions noted are these: spin lock amplitude 100 Hz, 1.5T. The data set is classed as physicochemical. As for the experimental part:
The ability of the sequence to detect changes in H2^17O concentration was measured by imaging six 15 mL conical tubes filled with 1× Phosphate Buffered Saline doped with H2^17O (Isotec, Miamisberg, Ohio) in steps of 5 mM from 20 mM (natural abundance) to 45 mM. These tubes were sealed and placed into a 9 cm jar filled with water. A receive only loop coil was placed around the jar and used in combination with the body transmit coil. Cross-sectional images of the tubes were acquired with a spin lock amplitude of 100 Hz and spin lock times of 200, 400, 600, 800, and 1000 msec. Imaging parameters are: FoV 90 mm^2, ST 5 mm, TR/TE 10.4/5.2 ms, Matrix 128^2, BW 130 Hz/Px, α=180°.
The concentrations of the phantoms were determined experimentally according to the following equation:
[formula] Where fn is the natural abundance [H2^17O], S is the signal from a pixel or ROI with natural abundance (NA) [H2^17O] or [H2^17O] added (^17O) taken as a proton density weighted image to account for coil sensitivity or when T1ρ pre-encoded (T1ρ). R1ρ is the relaxivity due to H2^17O and TSL is the spin lock time.
FIG. 12 provides cross-sectional images of 15 mL conical tubes filled with phosphate buffered saline and doped with increasing amounts of H2^17O to concentrations from 20 mM (natural abundance) to 45 mM (25 mM added).

Data set [4] concerns pig brain. Put plainly: Pulsed ^17O2 inhalation (2 breaths, 40% enrichment) with T1ρ-weighted MRI of pig brain at 1.5 Tesla. It is filed as in vivo. The conditions noted are these: 70 Kg pig; ventricle signal normalized to whole brain. The procedure: To further test the apparatus 100, a 70 Kg Yorkshire pig was anesthetized with intramuscular doses of ketamine (25 mg/Kg) and xylazine (2.5 mg/Kg) and orally intubated. General anesthesia was maintained throughout the experiment with intravenous doses of ketamine (1-2 mg/Kg/hr) and diazepam (0.5-1 mg/Kg/hr). Once placed in the MRI scanner 114 in the prone position, the endotracheal tube was connected to the circuit and mechanical ventilation commenced in volume control mode with a tidal volume of 16.2 ml/Kg, a respiratory rate of 6 breaths/min, I:E ratio of 1:1 and zero end-expiratory pressure. After collecting baseline images on room air, the source valve was switched to 100% O2. After 5 minutes to allow for denitrogenation, further baseline images were obtained while breathing 100% oxygen. […]
Overlay of the signal decreases, ranging from 0% decrease to 1% decrease, an average of 40-50 seconds after the start of the ^17O2 breaths, as determined by indirect T1ρ imaging with a spin-lock sequence. […]
The time course of arterial ^17O2 concentrations, estimated from a model of alveolar gas dilution (appendix), is shown in FIG. 5a. […] Inspiratory tidal volume is measured from the calibrated output of the inhalation pump 102. […]

On to `[17OH2]` [H2^17O], for which the “R1ρ, relaxation enhancement of tissue due to H2^17O” value in data set [1] is on record as 5.91*10^−6 (μmol/g water)^−1 ms^−1. The “delay between the start of ^17O2 delivery and the start of wash-in in arterial blood” value in data set [2] (19.8 kg pig, second experiment) was approximately 70 s; in data set [2] (40.8 kg pig, 80% N2/20% O2 (70% ^17O enriched) for 60 seconds, femoral artery serum), “about 90 seconds”. The “time when recirculation begins” value in data set [2] (arterial blood sampling and analysis of mH2^17O content, pigs) is 60 to 80 s. Further, the “R1ρ(100 Hz)” value in data set [3] was 1.37e-05 mM⁻¹ ms⁻¹.

In the case of `O=O` [^17O2], the “delay of decrease in scaled signal in the cerebral ventricle after the initial inhalation of ^17O2” value in data set [4] is “about 110 seconds”.
